The text below walks through data of publication PMC10375191, “Transformable Neuropeptide Prodrug with Tumor Microenvironment Responsiveness for Tumor Growth and Metastasis Inhibition of Triple‐Negative Breast Cancer” (Advanced Science, 2023).

Starred links: 1 amine or outer side, 2 acyl side, 3 side chain; linkers in the order of their positions; H or OH if unused. Residues, ends and D or L forms follow the SMILES beside them. *: point of attachment. Doxorubicin(3'-N) = COc1cccc2c1C(=O)c1c(O)c3c(c(O)c1C2=O)C[C@@](O)(C(=O)CO)C[C@@H]3O[C@H]1C[C@H](N*)[C@H](O)[C@H](C)O1; Suc = O=C(CCC(=O)[*:2])[*:1]

For series [1], the system named is MDA‐MB‐231 xenograft model. The experiment in a line: In vivo antitumor evaluation, MDA-MB-231 xenograft. Further details: species or system mouse. The source says:
All the animal experimental procedures were recognized and approved by the Regional Ethics Committee for Animal Experiments at Ningbo University, China (Permit NO. SYXK (Zhe) 2019‐0005). The triple‐negative breast cancer (TNBC) xenograft tumors were established on female BALB/c nude mice (≈15 g) by subcutaneous injection of MDA‐MB‐231 cells (5 × 10^6 cells in each mouse). TNBC metastasis models were constructed by injecting MDA‐MB‐231‐luc cells (1 × 10^5 cells in each mouse) through the tail vein to female BALB/c nude mice. The day that MDA‐MB‐231‐luc was injected was set as D0. In vivo imaging system (IVIS) (Lumina XRMS Ш, PerkinElmer, USA) was utilized to identify the tumor metastasis at D12.
When the tumor volume of BALB/c mice reached ≈70 mm^3 (V = L × W × W/2), the tumor‐bearing mice were randomly divided into seven groups (n = 5 for each group). […] 100 µL drug was injected intravenously through the tail vein every other day for a total of five times. The day that the first injection was given was set as D0. Tumor size and mouse weight were measured every 2 days from the day that treatment started until D26.

For series [2], the system named is MDA‐MB‐231 tumor‐bearing BALB/c nude mice. The experiment in a line: Biodistribution by ex vivo fluorescence imaging. It counts as in vivo, mouse. As to conditions: single i.v. injection, ex vivo fluorescence 2-12 h. On the procedure:
At 2, 4, 6, 8, 10, and 12 h post‐injection, the major organs and tumor were taken out and fluorescence signals were captured by IVIS.

Series [3] relates to MDA‐MB‐231 cells. The experiment in a line: Flow cytometry: cellular uptake and cellular MMPs-responsive drug release. It counts as cell-based, human. On the procedure: MDA‐MB‐231 cells were plated in 6‐well plates (2 × 10^5 cells per well) for 24 h. […] The mean fluorescence intensity (MFI) of 1 × 10^4 cells was detected by flow cytometry (FACSCalibur, BD, USA). Besides, 5 mM ethylenediaminetetraacetic acid (EDTA) purchased from Sigma was used as a model inhibitor to inhibit MMPs activity.

A short description of series [4]: Morphological transformation / particle size by DLS and TEM in PBS of different pH. The series is classed as physicochemical. As to conditions: DLS.
Series [5] can be described thus: Pharmacokinetics in plasma. The series is classed as in vivo, mouse. To be noted: ICR female mice, 10 mg kg^−1 DOX content i.v. On the procedure: The drug contents were quantified by HPLC (1260 Infinity II, Agilent, USA) as described in the methods of characterization in Supporting Information and the pharmacokinetic parameters were analyzed using the Phoenix WinNonlin 8.3.5 software.

The test system of series [6] is MDA‐MB‐231 cells. The experiment in a line: Transwell invasion assay (Matrigel). The series is classed as cell-based, human. As to conditions: MDA-MB-231, Matrigel transwell, 1 µg mL^−1 in lower chamber, 24 h, versus PBS group, n = 3. On the procedure:
1 × 10^6 MDA‐MB‐231 cells were suspended on the top chambers of the transwell with Matrigel. Cells were cultured in DMEM without FBS overnight. […] After incubation for 24 h, the cells on the upper wells were cautiously erased with a cotton swab. Cells on the lower surface were fixed with 4% PFA and stained with crystal violet. After multiple washing with PBS, the cells that passed through the membrane were recorded with a microscope (DFC 450C, Leica, Germany).

For the next series, the system named is MCF‐10A cells. As to the kind of experiment: CCK-8 cell viability assay, MCF-10A. The series is classed as cell-based, human. To be noted: 24 h. The procedure:
(§1) MDA‐MB‐231 cells were incubated in 96‐well plates for 24 h (1 × 10^4 cells per well). […] At the appointed time, 10 µL CCK‐8 solution was dropped into each well and further co‐incubated with treated cells for 2 h. The absorbance values at 450 nm were measured by an automated plate reader (iMark (168‐1130), Biorad, USA). The IC50 values were obtained from Microsoft Excel's FORECAST formula.
mammary epithelial cell line MCF-10A after 24 h incubation. Data are presented as
means ± standard deviations (n = 3).
(§2) (1 picture or pasted object on this page, not shown here)
A general note: Tetrazolium dyes change colour on reduction, which living cells bring about.

The test system of a further series is MCF‐7 cells. The experiment in a line: CCK-8 cell viability assay, MCF-7. The series is classed as cell-based, human. As to conditions: MCF-7, 24 h. On the procedure: as §1
breast cancer cell line MCF-7 after 24 h incubation. Data are presented as means ±
standard deviations (n = 3).
as §2

[7] abbreviates: MDA-MB-231, 40 µg mL^−1, 1 h 37 °C, endocytosis inhibitors, flow cytometry MFI.

For the molecule `CC[C@H](C)[C@H](NC(=O)[C@@H]1CCCN1C(=O)[C@H](CC(N)=O)NC(=O)[C@H](CC(N)=O)NC(=O)[C@H](Cc1ccc(O)cc1)NC(=O)[C@H](Cc1c[nH]cn1)NC(=O)[C@H](CCCNC(=N)N)NC(=O)CNC(=O)[C@H](CCCNC(=N)N)NC(=O)[C@@H](NC(=O)CNC(=O)[C@H](CC(C)C)NC(=O)[C@@H]1CCCN1C(=O)CCC(=O)N[C@H]1C[C@H](O[C@H]2C[C@](O)(C(=O)CO)Cc3c(O)c4c(c(O)c32)C(=O)c2c(OC)cccc2C4=O)O[C@@H](C)[C@H]1O)C(C)C)C(=O)N[C@@H](Cc1c[nH]c2ccccc12)C(=O)N[C@@H](CCCNC(=N)N)C(=O)N[C@@H](CCC(N)=O)C(=O)N[C@@H](CCCNC(=N)N)C(=O)N[C@@H](Cc1ccc(O)cc1)C(N)=O` [DOX‐P18] ({Doxorubicin(3'-N)-Suc}-PLGVRGRHYNNPIWRQRY-NH2), the “Death / body weight in tumor-bearing mice” value in series [1] (MDA-MB-231 tumor-bearing nude mice, DOX-P18 up to 100 mg kg^−1 (20 mg kg^−1 DOX), DOX at 10 and 20 mg kg^−1) was “no death or obvious weight losses”. Also, the Tumor growth inhibition result in series [1] (MDA-MB-231 xenograft, 100 mg kg^−1 (equivalent to 20 mg kg^−1 DOX) i.v. every other day, five times, n = 5) was “significant inhibitory efficacy”. The “Histological analysis of major organs after treatment” value in series [1] (MDA-MB-231 xenograft, 24 days, five administrations, 5 mg kg^−1 DOX or DOX equivalent) is on record as “without obvious lesions in other organs”. Also, the “Time of highest content in tissues” value in series [2] is 6 h. For the same molecule, the “Cellular uptake at 4 °C (MFI)” value in the series with MDA‐MB‐231 cells [3] (MDA-MB-231, 40 µg mL^−1 (by DOX content), DMEM 10% FBS, 1 h, 4 °C, flow cytometry, n = 3) was “strongly suppressed”. Also, in the series with MDA‐MB‐231 cells [3] (MDA-MB-231, 40 µg mL^−1, 1 h 37 °C, Y1R antagonist BIBP3304 20 µM, flow cytometry MFI), the “Share of uptake by Y1R-mediated endocytosis” value stood at 20%. Further, in the series on MDA‐MB‐231 cells [3] (setting [7]), the “Share of uptake by caveolin-mediated endocytosis” value amounted to 14% and the “Share of uptake by micropinocytosis” value is given as 27%. In addition, the “Cell fluorescence intensity relative to EDTA-treated group (cellular drug release)” value in the series with MDA‐MB‐231 cells [3] (MDA-MB-231, 48 h, without vs with 5 mM EDTA (MMPs inhibited), flow cytometry, n = 3) was “almost three times higher”. Further, the “Aggregation state (particle size distribution)” value in series [4] (PBS buffer pH 7.4) was “nanoparticles could only be detected”. For the same molecule, the “Aggregation state (particle size distribution)” value in series [4] (PBS, neutral and weakly acidic media (pH ≤ 6.5; 6.5, 6.0, 5.0)) is listed as “monomolecular dispersion”. Also, in series [5], the “Plasma clearance (CL) relative to DOX” value is 1/4 and the “Total plasma concentration (AUC) relative to DOX” value is given as “four times higher”. In the series with MDA‐MB‐231 cells [6], the “Inhibition on cell invasion” value came to 50%. For the same molecule, the “IC50 (cytotoxicity), in words” value in the series on MCF‐10A cells is given as “higher”. For the same molecule, in the series on MCF‐7 cells, the “IC50 (cytotoxicity), in words” value was “higher”.
